In patent US20260115331A1, “PET IMAGING OF BACTERIAL INFECTION WITH A PET PROBE” (Mayo Foundation for Medical Education and Research, priority 2022, published 2026):
Read-outs that look alike come from different tables or passages of the source.

Experiments:
E coli = assay: Biodistribution in thigh infected mice (E. coli) at 120 min post injection; format: in vivo; details: n = 4, 2 h post infection with E coli
Excerpt: The feasibility of the developed PET probe [^68Ga]Ga-H3P2O8 in a mouse model of thigh infection as well as uptake in E. coli has been evaluated. […] The biodistribution of developed PET probe in normal and in thigh infected mice has been assessed (see FIG. 11). […] Micro-PET imaging of normal and thigh-infected mice has also been performed. The site of bacterial infection was evident on micro-PET images (see FIG. 13) with arrows in contrast to the non-infected group of mice. The bacterial site of infection on micro-PET images was confirmed by bacterial culture performed on the biopsied sample. Micro-PET imaging was performed at different time intervals to optimize imaging time.

[1] = test system: Methicillin-resistant Staphylococcus aureus (MRSA); format: in vivo, rats; details: for SUV (Average ± SD), Contralateral Tibia / SUV (Average ± SD), Infected Tibia / SUV (Average ± SD), Muscle: Osteomyelitis Foreign Body model
Procedure: (§1) The PET probe [^68Ga]Ga-H3P2O8 was evaluated in methicillin-resistant S. aureus (MRSA) foreign-body osteomyelitis in the left tibia with a stainless steel Kirschner wire (K-wire) implant in male Wister rats, following a previously established protocol [Ref. 17]. Briefly, a 1 cm incision was made on the medial tibia and the bone exposed. A 1.5 mm hole was drilled, 0.01 mL of arachidonic acid (a sclerosing agent) and 0.05 mL of a suspension containing MRSA DRL-6169 at 10^8 cfu/mL was injected into the bone. A 5 mm threaded stainless-steel K-wire was inserted. The hole was closed with dental gypsum and the site closed. After implantation, the muscle and fascia were closed with 3-0 vicryl using simple interrupted sutures. The skin was closed with sterile wound clips and VetBond. The wound was sprayed with Aluspray and Chew Guard. After 7 days of implantation of wire, the animal was put on iron-deficient diet for 7 days and on the day of imaging, the animals were fasted for 4 hours prior to the injection of the PET probe. [^68Ga]Ga-H3P2O8 (32.81±6.28 MBq, n=18) were injected into the rat model via tail vein injection. The rat model was either a normal rat model or an osteomyelitis foreign body rat model or an inflamed foreign body rat model. PET/CT images were acquired at 15 minutes, 30 minutes, 60 minutes, and 120 minutes post-injection using Siemens Inveon MicroPET/CT Scanner (see FIGS. 17, 18, and Table 2).
(§2) The acquired PET images were visualized and analyzed for quantifying standardized uptake value (SUV) using image analysis software—MIM 7 software and PMOD. Following final imaging at 120 minutes post-injection, the animal was euthanized, and major organs and infected and inflamed tibia were extracted for gamma counting for ex-vivo biodistribution analysis (see FIG. 22). At the end of last imaging session, rats were euthanized by cardiectomy, and the operated tibia with K-wire or contralateral tibia were aseptically removed. Following removal, tibias were weighed, and Ga-68 radioactivity was counted in 2480 Wizard2 automatic gamma counter for ex-vivo biodistribution assessment. The tibias were then frozen to −80° C. The frozen tibia from each animal was crushed aseptically using a bone pulverizer chilled at −80° C. The crushed tibia without K wire was weighed and vortexed in 1 mL sterile saline. The K wire was also vortexed in 1.0 mL sterile saline separately. The vortexed tibia and K-wire saline suspension were sonicated for 5 minutes. After sonication, 1:10 serial dilutions were prepared in saline and 0.1 mL of each dilution was plated in Trypticase Soy Agar plates with 5% Sheep Blood (TSA II). After 24 hours of incubation at 37° C., the bacterial cultures in tibia suspension and K-wire suspension were quantified. In the 2-week-old osteomyelitis model used in the study, the infected tibia contained 7.00±0.19 log10 cfu/g tibia (n=10) and 5.41±0.40 log10 cfu/K-wire (n=10).

[2] = PET image analysis (SUV) of inflamed tibia in foreign body inflammation rat model; format: in vivo, rats; details: each time point up to 120 minutes (FIG. 27)
Procedure: as §1
To assess the preferential uptake of novel [^68Ga]Ga-H3P2O8 PET probe in infection as compared to inflammation, the same surgery and imaging was performed but omitted the MRSA. […] The probe [^68Ga]Ga-H3P2O8 was also successfully used to detect thigh infection caused by E coli in a mouse model.
To further investigate the selectivity of [^68Ga]Ga-H3P2O8 for imaging infection over inflammation, this novel probe was compared to other PET imaging probes, [^68Ga]Ga-Citrate and [^18F]FDG in an inflammation model. In a side-by-side study, all three probes were used to image inflammation (i.e., an inflamed tibia) in an osteomyelitis foreign body rat model.

[3] = test system: Klebsiella pneumoniae (K. pneumoniae); assay: Ex vivo biodistribution in osteomyelitis foreign body rat model with K. pneumoniae infection vs inflammation model; parameters: species or system rats; details: 120 minutes post-injection, comparable SUVs except bladder and feces (FIG. 34)
Procedure: as §2, with “In the 2-week-old osteomyelitis model used in the study, the infected tibia contained 7.00±0.19 log10 cfu/g tibia (n=10) and 5.41±0.40 log10 cfu/K-wire (n=10).” left out

For O=P(O)(O)[O][Ga]1[O]P(=O)(O)[O]1 [[^68Ga]Ga-H3P2O8, [^68Ga]Ga-hydrogen bisphosphate], the “SUV ± STD, Adipose” value (E coli; Adipose) was 0.34 ± 0.34 SUV, the “SUV ± STD, Bladder” value (E coli; Bladder) was 3.11 ± 3.0 SUV and the “SUV ± STD, Blood” value (E coli; Blood) was 1.83 ± 0.20 SUV. For the same molecule, the “SUV ± STD, Bone” value (E coli; Bone) was 2.73 ± 1.12 SUV, the “SUV ± STD, Brain” value (E coli; Brain) was 0.81 ± 1.5 SUV and the “SUV ± STD, Cecum” value (E coli; Cecum) was 1.74 ± 0.55 SUV. The “SUV ± STD, Eye” value (E coli; Eye) was 3.86 ± 1.71 SUV, the “SUV ± STD, Feces” value (E coli; Feces) was 0.93 ± 0.43 SUV and the “SUV ± STD, Gut” value (E coli; Gut) was 1.78 ± 0.10 SUV. The “SUV ± STD, Heart” value (E coli; Heart) was 0.61 ± 0.14 SUV, the “SUV ± STD, Infected Thigh” value (E coli; Infected Thigh) was 1.12 ± 0.43 SUV and the “SUV ± STD, Kidney-1” value (E coli; Kidney-1) was 3.24 ± 1.19 SUV. For the same molecule, the “SUV ± STD, Kidney-2” value (E coli; Kidney-2) was 3.28 ± 2.10 SUV, the “SUV ± STD, Liver” value (E coli; Liver) was 2.02 ± 0.89 SUV and the “SUV ± STD, Lung-1” value (E coli; Lung-1) was 2.13 ± 0.54 SUV. The “SUV ± STD, Lung-2” value (E coli; Lung-2) was 3.03 ± 0.53 SUV, the “SUV ± STD, Normal Thigh” value (E coli; Normal Thigh) was 0.25 ± 0.05 SUV and the “SUV ± STD, Skin” value (E coli; Skin) was 0.88 ± 0.63 SUV. For the same molecule, the “SUV ± STD, Spleen” value (E coli; Spleen) was 0.80 ± 0.69 SUV, the “SUV ± STD, Stomach” value (E coli; Stomach) was 0.48 ± 0.14 SUV and the “mean SUV in infected tibia compared with [^68Ga]Ga-Citrate or [^18F]FDG” value ([1]; MRSA infected tibia, after 60 minutes post injection, PET image analysis (FIG. 26)) was “significantly higher mean SUV”. The “SUV (Average ± SD), Contralateral Tibia” value ([1]; n = 5, 15 min post-injection) was 0.76 ± 0.17 SUV, the “SUV (Average ± SD), Infected Tibia” value ([1]; n = 5, 15 min post-injection) was 1.82 ± 0.57 SUV and the “SUV (Average ± SD), Muscle” value ([1]; n = 5, 15 min post-injection) was 0.59 ± 0.14 SUV. For the same molecule, the “SUV (Average ± SD), Contralateral Tibia” value ([1]; n = 5, 30 min post-injection) was 0.59 ± 0.12 SUV, the “SUV (Average ± SD), Infected Tibia” value ([1]; n = 5, 30 min post-injection) was 2.40 ± 0.49 SUV and the “SUV (Average ± SD), Muscle” value ([1]; n = 5, 30 min post-injection) was 0.58 ± 0.20 SUV. The “SUV (Average ± SD), Contralateral Tibia” value ([1]; n = 5, 60 min post-injection) was 0.60 ± 0.15 SUV, the “SUV (Average ± SD), Infected Tibia” value ([1]; n = 5, 60 min post-injection) was 2.87 ± 0.66 SUV and the “SUV (Average ± SD), Muscle” value ([1]; n = 5, 60 min post-injection) was 0.67 ± 0.18 SUV. For the same molecule, the “SUV (Average ± SD), Contralateral Tibia” value ([1]; n = 5, 120 min post-injection) was 0.29 ± 0.18 SUV, the “SUV (Average ± SD), Infected Tibia” value ([1]; n = 5, 120 min post-injection) was 3.48 ± 0.25 SUV and the “SUV (Average ± SD), Muscle” value ([1]; n = 5, 120 min post-injection) was 0.76 ± 0.30 SUV. The “difference in mean SUV between the probes in inflamed tibia” value [2] was “no significant difference” and the “distribution in organs/excrement of infected model compared with inflammation model” value [3] was “similar”.
